Data published in US20240165112A1, “THERAPY FOR THE TREATMENT OF CANCER” (Bristol-Myers Squibb Company, priority 2022, published 2024).

How the values were obtained:
Assay in all cases: 3D clonogenic assay in patient derived organoids
Format in all cases: cell-based, human
[1] = test system: LXFA644 organoid, NSCLC (adenocarcinoma subtype)
Protocol: (§1) Five tumor cell lines (4T1.2, A549, EMT6, NCI-H460, and HT29) were treated with a range of paclitaxel or 5-FU concentrations in the presence of dimethlylsulfoxide (DMSO), 5 μM Compound 1, or 20 μM Compound 1. Cells were imaged 4 days after treatment and percent confluence was assessed by image quantification. EC50 values for cell confluence were used to assess chemotherapy potency. Eleven patient-derived tumor organoids (MAXFTN449, MAXFTN2990, PAXF1657, PAXF2131, CXF1256, CXF2129, CXF2061, LXFE2478, LXFE690, LXFA677, LXFA644) were seeded in a 3D matrix and treated with a range of paclitaxel, 5-FU, SN38, Gemcitabine, oxaliplatin, and carboplatin concentrations in the presence of DMSO, 5 μM Compound 1, or 20 μM Compound 1. After 8 to 13 days in culture, colonies were stained, imaged, and counted. A dose response curve was generated for chemotherapy alone or chemotherapy in combination with 5 or 20 μM Compound 1. Combination activity was defined as a percentage of the area under the chemotherapy dose response curve (cAUC) for Compound 1 combination groups compared to the cAUC of chemotherapy alone.
(§2) For combination experiments, working stock solutions of all compounds were prepared in DMSO at concentrations of 660-fold the highest test concentration used and stored at −20° C. Platin compounds were prepared freshly on each treatment day. On each day of an experiment, an aliquot of the working stock solutions was used and stored at room temperature prior to and during treatment. First, 1:2 dilutions of 660-fold concentrated working stocks were prepared in DMSO (in case of monotherapy controls), or equal amounts of the compound working stocks were mixed (in case of drug combinations). Then, different dilutions of these 330-fold concentrated solutions were prepared in DMSO to give an 8×2 matrix combination layout with conditions. The DMSO dilutions were further diluted […] into cell culture medium (IMDM, supplemented with 20% (v/v) fetal bovine serum, and 50 μg/mL gentamicin) in an intermediate dilution plate. Finally, 10 μL taken from the intermediate dilution plate were transferred to 140 μL of cells and medium per well of the final assay plate. Thus, the DMSO dilutions used for the mono- and the combination-treatment were diluted 1:660, and the DMSO concentration in the assay was […].
(§3) Tumors were passaged as subcutaneous xenografts in NMRI nu/nu mice. At a tumor volume of 400 to 1000 mm^3, tumor-bearing mice were euthanized, and tumors were collected under sterile conditions without delay. Tumors were mechanically disaggregated and subsequently incubated with an enzyme cocktail consisting of collagenase type IV (41 U/mL), DNase I (125 U/mL), hyaluronidase type III (100 U/mL), and dispase II (1 U/mL) in RPMI 1640 medium at 37° C. for 60 to 120 minutes. Cells were passed through sieves of 100 μm and 40 μm mesh size, and washed with RPMI 1640 medium. The percentage of viable cells was determined in a Neubauer-hemocytometer using trypan blue exclusion. Aliquots of the cells were frozen down and stored in liquid nitrogen vapor phase. On each day of an experiment, a frozen aliquot of tumor cells was thawed and used for preparation of assay plates.
(§4) The clonogenic assay was carried out in a 96 well plate format using ultra low attachment plates. For each test, plates were prepared as follows: each test well contained a layer of semi-solid medium with tumor cells (50 μL), and a second layer of medium supernatant with or without test compound (100 μL). The cell layer consisted of […] to 12.5×10^3 tumor cells per well, which were seeded in 50 μL/well cell culture medium (IMDM, supplemented with 20% (v/v) fetal bovine serum, 50 μg/mL gentamicin, and 0.4% (w/v) agar). After 24 hours, the soft-agar layer was covered with 90 μL of the same culture medium without agar, and 10 μL of control medium or test compound after serial dilution in DMSO for the duration of the experiment (continuous exposure, 100 μL drug overlay).

[2] = test system: LXFA677 organoid, NSCLC (adenocarcinoma subtype)
Protocol: as §1, §2, §3, §4

[3] = test system: LXFE2478 organoid, NSCLC (squamous subtype); details: for Combination activity 5 μM Compound 1 (cAUC % reduction): chemotherapy dose titration + 5 μM Compound 1 vs chemotherapy alone
Protocol: as §1, §2, §3, §4

[4] = test system: LXFE690 organoid, NSCLC (squamous subtype)
Protocol: as §1, §2, §3, §4

[5] = test system: CXF1256 organoid, colon cancer; details: for Combination activity 5 μM Compound 1 (cAUC % reduction): chemotherapy dose titration + 5 μM Compound 1 vs chemotherapy alone; for Combination activity 20 μM Compound 1 (cAUC % reduction): chemotherapy dose titration + 20 μM Compound 1 vs chemotherapy alone
Protocol: as §1, §2, §3, §4

[6] = test system: CXF2061 organoid, colon cancer; details: for Combination activity 5 μM Compound 1 (cAUC % reduction): chemotherapy dose titration + 5 μM Compound 1 vs chemotherapy alone; for Combination activity 20 μM Compound 1 (cAUC % reduction): chemotherapy dose titration + 20 μM Compound 1 vs chemotherapy alone
Protocol: as §1, §2, §3, §4

[7] = test system: CXF2129 organoid, colon cancer; details: for Combination activity 5 μM Compound 1 (cAUC % reduction): chemotherapy dose titration + 5 μM Compound 1 vs chemotherapy alone; for Combination activity 20 μM Compound 1 (cAUC % reduction): chemotherapy dose titration + 20 μM Compound 1 vs chemotherapy alone
Protocol: as §1, §2, §3, §4

[8] = test system: MAXFTN2990 organoid, breast cancer (triple negative)
Protocol: as §1, §2, §3, §4

[9] = test system: MAXFTN449 organoid, breast cancer (triple negative)
Protocol: as §1, §2, §3, §4

[10] = chemotherapy dose titration + 5 μM Compound 1 vs chemotherapy alone
[11] = chemotherapy dose titration + 20 μM Compound 1 vs chemotherapy alone

SMILES	Combination activity 5 μM Compound 1 (cAUC % reduction) [1, 10] [%]	Combination activity 20 μM Compound 1 (cAUC % reduction) [1, 11] [%]	Combination activity 5 μM Compound 1 (cAUC % reduction) [2, 10] [%]	Combination activity 20 μM Compound 1 (cAUC % reduction) [2, 11] [%]	Combination activity 5 μM Compound 1 (cAUC % reduction) [3] [%]	Combination activity 5 μM Compound 1 (cAUC % reduction) ([3]; listed as gemcitabine) [%]	Combination activity 20 μM Compound 1 (cAUC % reduction) [3, 11] [%]	Combination activity 5 μM Compound 1 (cAUC % reduction) [4, 10] [%]	Combination activity 20 μM Compound 1 (cAUC % reduction) [4, 11] [%]	Combination activity 5 μM Compound 1 (cAUC % reduction) [5] [%]	Combination activity 20 μM Compound 1 (cAUC % reduction) [5] [%]	Combination activity 5 μM Compound 1 (cAUC % reduction) [6] [%]	Combination activity 20 μM Compound 1 (cAUC % reduction) [6] [%]	Combination activity 5 μM Compound 1 (cAUC % reduction) [7] [%]	Combination activity 20 μM Compound 1 (cAUC % reduction) [7] [%]	Combination activity 5 μM Compound 1 (cAUC % reduction) [8, 10] [%]	Combination activity 20 μM Compound 1 (cAUC % reduction) [8, 11] [%]	Combination activity 5 μM Compound 1 (cAUC % reduction) [9, 10] [%]	Combination activity 20 μM Compound 1 (cAUC % reduction) [9, 11] [%]
Nc1ccn([C@@H]2O[C@H](CO)[C@@H](O)C2(F)F)c(=O)n1 [Gemcitabine, gemcitabine]	3	20	7	15	41	41	30	59	61	–	–	–	–	–	–	–	–	–	–
O=C1[O][Pt]2([NH][C@@H]3CCCC[C@H]3[NH]2)[O]C1=O [Oxaliplatin, oxaliplatin]	–	–	–	–	–	–	–	–	–	70	63	13	−18	37	9	–	–	–	–
CCc1c2c(nc3ccc(O)cc13)-c1cc3c(c(=O)n1C2)COC(=O)[C@]3(O)CC [SN38]	–	–	–	–	–	–	–	–	–	90	91	22	26	44	33	57	74	58	46
